{
  "source": "paper PMC9739877",
  "about": "“Discovery and Mechanistic Investigation of Piperazinone Phenylalanine Derivatives with Terminal Indole or Benzene Ring as Novel HIV-1 Capsid Modulators” (Molecules, 2022)",
  "key": {"MT-4 cells": {"test_system": "MT-4 cells", "experiment": "Cytotoxicity in mock-infected MT-4 cells, MTT assay", "format": "cell-based", "conditions": "50% reduction of viability of mock-infected MT-4 cells", "method": "(§1) II. In vitro anti-HIV Assay in MT-4 Cells […]\n(§2) performed using the MTT assay as described below. Stock solutions (10 × final concentration) of test compounds were added in 25 µL volumes to two series of […]\n(§3) infected cells at the beginning of each experiment. Serial 5-fold dilutions of test […]\n(§4) Biomek 3000 robot (Beckman Instruments, Fullerton, CA). Untreated HIV- and mock-infected cell samples were included as controls. HIV stock (50 µL) at 100-300 CCID50 […]\n(§5) or mock-infected wells of the microtiter tray. Mock-infected cells were used to evaluate […]\n(§6) cytotoxicity. Exponentially growing MT-4 cells were centrifuged for 5 minutes at 220 g, and the supernatant was discarded. […]\n(§7) cells/mL, and 50 µL volumes were transferred to the microtiter tray wells. Five days […]\n(§8) spectrophotometrically using the MTT assay. The MTT assay is based on the reduction […]\n(§9) M1000, Tecan), at two wavelengths (540 and 690 nm). All data were calculated using the median absorbance value of three wells.\n(§10) (OD540) of the mock-infected control sample by 50%. The concentration achieving 50%"}, "HIV-1 CA monomer": {"biological_target": "T1, HIV-1 CA monomer (Human immunodeficiency virus type 1 group M subtype B, UniProt P12493)", "T1 construct": "a vector containing C-terminally His-tagged HIV-1NL4-3CA; His6 (CA-H6) (C); made in house; host or cells: E. coli BL21-Codon Plus (DE3)-RIL", "experiment": "biochemical", "format": "binding", "conditions": "SPR"}, "[1]": {"conditions": "human, microsomes"}, "HIV-1 (IIIB)": {"test_system": "HIV-1 (IIIB)", "experiment": "microbe, parasite or virus in culture", "format": "cell-based", "conditions": "Human immunodeficiency virus 1, MT4, 50% protection against HIV-induced cytotoxicity, MT-4 cells, MTT", "method": "(§11) II. In vitro anti-HIV Assay in MT-4 Cells\n(§12) Evaluation of the antiviral activity of the compounds against HIV in MT-4 cells was performed using the MTT assay as described below. Stock solutions (10 × final concentration) of test compounds were added in 25 µL volumes to two series of triplicate wells to allow simultaneous evaluation of their effects on mock- and HIV-infected cells at the beginning of each experiment. Serial 5-fold dilutions of test compounds were made directly in flat-bottomed 96-well microtiter trays using a Biomek 3000 robot (Beckman Instruments, Fullerton, CA). Untreated HIV- and mock-infected cell samples were included as controls. HIV stock (50 µL) at 100-300 CCID50 (50 % cell culture infectious doses) or culture medium was added to either the infected or mock-infected wells of the microtiter tray. Mock-infected cells were used to evaluate the effects of the test compound on uninfected cells to assess the test compounds' cytotoxicity. Exponentially growing MT-4 cells were centrifuged for 5 minutes at 220 g, and the supernatant was discarded. […]\n(§13) cells/mL, and 50 µL volumes were transferred to the microtiter tray wells. Five days after infection, the viability of mock-and HIV-infected cells was examined spectrophotometrically using the MTT assay. The MTT assay is based on the reduction of yellow colored 3-(4,5-dimethylthiazol-2-yl)-2,5-diphenyltetrazolium bromide (MTT) (Acros Organics) by mitochondrial dehydrogenase activity in metabolically active cells to a blue-purple formazan that can be measured spectrophotometrically. The absorbances were read in an eight-channel computer-controlled photometer (Infinite M1000, Tecan), at two wavelengths (540 and 690 nm). All data were calculated using the median absorbance value of three wells. […]\n(§14) was defined as the concentration of the test compound that reduced the absorbance (OD540) of the mock-infected control sample by 50%. The concentration achieving 50% protection against the cytopathic effect of the virus in infected cells was defined as the […]"}, "HIV-2 (ROD)": {"test_system": "HIV-2 (ROD)", "experiment": "Anti-HIV-2 (ROD) activity in MT-4 cells, MTT assay", "format": "cell-based", "conditions": "Human immunodeficiency virus 2, MT4, 50% protection against HIV-induced cytotoxicity", "method": "as §11, §12, §13, §14"}, "in vitro [2]": {"experiment": "in vitro", "conditions": "human, microsomes"}, "HIV-1 CA hexamer": {"biological_target": "HIV-1 CA hexamer (Human immunodeficiency virus type 1 group M subtype B, UniProt P12493, A146C/E177C/M317A/W316A)", "experiment": "SPR binding to disulfide-stabilized hexameric HIV-1 CA"}, "in vitro [3]": {"experiment": "in vitro", "conditions": "both, human, plasma"}, "[4]": {"experiment": "Cytotoxicity in mock-infected MT-4 cells, MTT assay", "format": "cell-based", "conditions": "human, 50% reduction of viability of mock-infected MT-4 cells", "method": "as §1, §2, §3, §4, §5, §6, §7, §8, §9, §10"}},
  "data": [
    {"smiles": "COc1ccc(N(C)C(=O)[C@H](Cc2cc(F)cc(F)c2)NC(=O)CN2CCN(C(=O)Cc3c[nH]c4ccc(F)cc34)CC2=O)cc1", "note": "[F2-7f, (S)-3-(3,5-difluorophenyl)-2-(2-(4-(2-(5-fluoro-1H-indol-3-yl)acetyl)-2-oxopiperazin-1-yl)acetamido)-N-(4-methoxyphenyl)-N-methylpropanamide]", "values": [
      {"measurement": "CC50", "setting": "MT-4 cells", "result": "16.4 ± 3.38", "unit": "µM"},
      {"measurement": "Kd", "setting": "HIV-1 CA monomer", "result": "16.1 ± 1.32", "unit": "µM"},
      {"measurement": "Remaining (NCF = 60 min)", "setting": "[1]; 1 h, 1 μM", "result": 103.5, "unit": "%"},
      {"measurement": "Remaining (T = 60 min)", "setting": "[1]; 1 h, 1 μM", "result": 0.0, "unit": "%"},
      {"measurement": "EC50", "setting": "HIV-1 (IIIB)", "result": "5.89 ± 2.03", "unit": "µM"},
      {"measurement": "EC50", "setting": "HIV-2 (ROD)", "result": "5.07 ± 0.63", "unit": "µM"},
      {"measurement": "CLint scaled at 1 μM", "setting": "in vitro [2]", "result": 2480, "unit": "mL/min/kg"},
      {"measurement": "half-life at 1 μM", "setting": "in vitro [2]", "result": 0.5, "unit": "min"},
      {"measurement": "microsomal CLint at 1 μM", "setting": "in vitro [2]", "result": 2760, "unit": "µL/min/mg"},
      {"measurement": "Kd", "setting": "HIV-1 CA hexamer", "result": "7.2 ± 1.1", "unit": "µM"},
      {"measurement": "koff times higher than that of PF74", "setting": "HIV-1 CA hexamer; CA hexamers", "result": "approximately 8.5 times"},
      {"measurement": "Ratio KD Monomer/KD Hexamer", "setting": "HIV-1 CA hexamer; SPR", "result": 2.230},
      {"measurement": "koff Hexamer", "setting": "HIV-1 CA hexamer; off-rate measured for HIV-1 CA hexamer", "result": "0.151 ± 0.028", "unit": "s⁻¹"},
      {"measurement": "half-life at 2 μM", "setting": "in vitro [3]", "result": "> 289", "unit": "min"},
      {"measurement": "remaining at 0 h, 2 μM", "setting": "in vitro [3]", "result": 100, "unit": "%"},
      {"measurement": "remaining at 10 min, 2 μM", "setting": "in vitro [3]", "result": 98, "unit": "%"},
      {"measurement": "remaining at 0.5 h, 2 μM", "setting": "in vitro [3]", "result": 97.8, "unit": "%"},
      {"measurement": "remaining at 1 h, 2 μM", "setting": "in vitro [3]", "result": 90.9, "unit": "%"},
      {"measurement": "remaining at 2 h, 2 μM", "setting": "in vitro [3]", "result": 86.9, "unit": "%"}
    ]},
    {"smiles": "O=C(O)Cc1ccccc1Nc1c(Cl)cccc1Cl", "note": "[Diclofenac, diclofenac]", "values": [
      {"measurement": "CLint(liver)", "setting": "[1]", "result": 334.8, "unit": "mL/min/kg"},
      {"measurement": "CLint(mic)", "setting": "[1]", "result": 372.0, "unit": "µL/min/mg"},
      {"measurement": "T1/2", "setting": "[1]", "result": 3.7, "unit": "min"}
    ]},
    {"smiles": "COc1ccc(N(C)C(=O)[C@H](Cc2cc(F)cc(F)c2)NC(=O)CN2CCN(C(=O)c3ccc(NS(C)(=O)=O)cc3)CC2=O)cc1", "note": "[F2-7h, (S)-3-(3,5-difluorophenyl)-N-(4-methoxyphenyl)-N-methyl-2-(2-(4-(4-(methylsulfonamido)benzoyl)-2-oxopiperazin-1-yl)acetamido)propenamide]", "values": [
      {"measurement": "CC50 at 5 days", "setting": "[4]", "result": "> 190", "unit": "µM"},
      {"measurement": "EC50", "setting": "HIV-1 (IIIB)", "result": "161 ± 15.4", "unit": "µM"},
      {"measurement": "EC50", "setting": "HIV-2 (ROD)", "result": "183 ± 2.77", "unit": "µM"}
    ]},
    {"smiles": "COc1ccc(N(C)C(=O)[C@H](Cc2ccccc2)NC(=O)CN2CCN(C(=O)c3ccc(NC(C)=O)cc3)CC2=O)cc1", "note": "[7g, (S)-2-(2-(4-(4-acetamidobenzoyl)-2-oxopiperazin-1-yl)acetamido)-N-(4-methoxyphenyl)-N-methyl-3-phenylpropanamide]", "values": [
      {"measurement": "CC50 at 5 days", "setting": "[4]", "result": "> 213", "unit": "µM"},
      {"measurement": "EC50", "setting": "HIV-1 (IIIB)", "result": "203 ± 11", "unit": "µM"},
      {"measurement": "EC50", "setting": "HIV-2 (ROD)", "result": "184 ± 19.3", "unit": "µM"}
    ]},
    {"smiles": "COc1ccc(N(C)C(=O)[C@H](Cc2ccccc2)NC(=O)CN2CCN(C(=O)c3ccc(NC(=O)C(F)(F)F)cc3)CC2=O)cc1", "note": "[7j, (S)-N-(4-methoxyphenyl)-N-methyl-2-(2-(2-oxo-4-(4-(2,2,2-trifluoroacetamido)benzoyl)piperazin-1-yl)acetamido)-3-phenylpropanamide]", "values": [
      {"measurement": "CC50 at 5 days", "setting": "[4]", "result": "> 195", "unit": "µM"},
      {"measurement": "EC50", "setting": "HIV-1 (IIIB)", "result": "158 ± 6.77", "unit": "µM"},
      {"measurement": "EC50", "setting": "HIV-2 (ROD)", "result": "15 ± 4.83", "unit": "µM"}
    ]}
  ]
}
